# Measured values taken from ChEMBL document CHEMBL2074285, “Characterization of the drug resistance and transport properties of multidrug resistance protein 6 (MRP6, ABCC6)” (Cancer Res, 2002).
# Numbered stars: 1 amine (or outer) side, 2 acyl side, 3 side chain; on linkers, the order of the positions; unused ones are H or OH. Bridge positions count the residues as written; N and C are the ends. Square brackets hold non-standard residues; d marks the D form. Peptide text beside a SMILES is read from it. I, II: the chains in the order shown. Actinocin(9to1) = Cc1c2oc3c(C)ccc(C(=O)[*:1])c3nc-2c(C(=O)[*:2])c(N)c1=O; NMeV = CN[C@H](C(=O)O)C(C)C; Sar = CNCC(=O)O
# Target: T1, ATP-binding cassette sub-family C member 6 (Homo sapiens, UniProt O95255)
# Assay: TP_TRANSPORTER: uptake in membrane vesicle from MRP6-expressing CHO cells
# Type: functional, cell membranes
# Details: hamster
# T1 sequence (O95255 whole entry): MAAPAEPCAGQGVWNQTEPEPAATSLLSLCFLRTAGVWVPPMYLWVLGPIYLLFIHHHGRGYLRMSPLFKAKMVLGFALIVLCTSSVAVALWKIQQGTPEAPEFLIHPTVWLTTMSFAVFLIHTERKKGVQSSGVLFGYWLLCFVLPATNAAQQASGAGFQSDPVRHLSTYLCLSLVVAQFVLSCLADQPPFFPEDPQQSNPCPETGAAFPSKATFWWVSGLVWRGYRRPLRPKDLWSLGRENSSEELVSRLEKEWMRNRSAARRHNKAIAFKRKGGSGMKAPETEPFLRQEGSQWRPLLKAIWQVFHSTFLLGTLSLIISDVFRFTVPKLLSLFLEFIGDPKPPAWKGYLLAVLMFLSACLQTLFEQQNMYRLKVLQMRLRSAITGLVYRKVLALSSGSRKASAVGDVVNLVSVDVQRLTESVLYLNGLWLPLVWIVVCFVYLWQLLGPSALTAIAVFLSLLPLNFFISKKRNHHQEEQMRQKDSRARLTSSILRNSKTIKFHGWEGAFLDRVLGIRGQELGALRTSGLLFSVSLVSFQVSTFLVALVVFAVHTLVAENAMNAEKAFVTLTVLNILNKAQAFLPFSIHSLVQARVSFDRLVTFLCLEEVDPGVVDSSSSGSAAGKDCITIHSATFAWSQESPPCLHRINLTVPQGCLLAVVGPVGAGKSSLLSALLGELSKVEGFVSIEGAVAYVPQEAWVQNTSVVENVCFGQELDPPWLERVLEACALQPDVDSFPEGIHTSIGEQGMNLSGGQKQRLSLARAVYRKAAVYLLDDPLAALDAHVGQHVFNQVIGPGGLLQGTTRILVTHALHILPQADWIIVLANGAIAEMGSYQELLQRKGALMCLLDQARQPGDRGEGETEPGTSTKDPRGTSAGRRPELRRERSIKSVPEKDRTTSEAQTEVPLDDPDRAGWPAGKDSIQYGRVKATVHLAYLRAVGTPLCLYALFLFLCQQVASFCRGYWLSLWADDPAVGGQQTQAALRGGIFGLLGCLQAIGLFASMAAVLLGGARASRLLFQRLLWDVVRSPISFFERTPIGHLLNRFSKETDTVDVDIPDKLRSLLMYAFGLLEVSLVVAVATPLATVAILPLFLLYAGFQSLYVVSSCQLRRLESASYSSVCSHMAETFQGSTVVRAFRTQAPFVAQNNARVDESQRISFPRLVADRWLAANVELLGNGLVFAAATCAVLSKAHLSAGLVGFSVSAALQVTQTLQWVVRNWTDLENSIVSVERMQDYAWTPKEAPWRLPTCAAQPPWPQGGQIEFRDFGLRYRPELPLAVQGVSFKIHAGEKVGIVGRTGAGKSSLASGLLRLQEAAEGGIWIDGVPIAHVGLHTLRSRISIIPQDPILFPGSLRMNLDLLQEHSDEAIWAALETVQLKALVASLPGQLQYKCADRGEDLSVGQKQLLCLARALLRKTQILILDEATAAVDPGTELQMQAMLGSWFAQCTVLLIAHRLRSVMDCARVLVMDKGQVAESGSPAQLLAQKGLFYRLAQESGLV
row,Activity,Compound
1,substrate [+],"CC(C)C[C@@H]1NC(=O)[C@@H](C(C)C)NC(=O)[C@@H]2CCCN2C(=O)[C@@H](CC(=O)O)NC(=O)[C@@H](Cc2c[nH]c3ccccc23)NC1=O [BQ-123] (HELM PEPTIDE1{L.[dW].[dD].P.[dV]}$PEPTIDE1,PEPTIDE1,1:R1-5:R2$$$V2.0)"
2,substrate [+],CCCCC/C=C\C\C=C/C=C/C=C/[C@@H](SC[C@@H](NC(=O)CC[C@H](N)C(=O)O)C(=O)NCC(=O)O)[C@@H](O)CCCC(=O)O [LEUKOTRIEN C4]

row,Compound,Activity
1,N[C@@H](CCC(=O)N[C@H](CSc1ccc([N+](=O)[O-])cc1[N+](=O)[O-])C(=O)NCC(=O)O)C(=O)O,substrate [+]

# Target: T1, ATP-binding cassette sub-family C member 6
# Assay: TP_TRANSPORTER: drug resistance in MRP6-expressing CHO cells
# Type: functional, cell-based
# Details: hamster
row,Activity,Compound
1,substrate [],"Cc1c2oc3c(C)ccc(C(=O)N[C@@H]4C(=O)N[C@H](C(C)C)C(=O)N5CCC[C@H]5C(=O)N(C)CC(=O)N(C)[C@@H](C(C)C)C(=O)O[C@@H]4C)c3nc-2c(C(=O)N[C@@H]2C(=O)N[C@H](C(C)C)C(=O)N3CCC[C@H]3C(=O)N(C)CC(=O)N(C)[C@@H](C(C)C)C(=O)O[C@@H]2C)c(N)c1=O [DACTINOMYCIN] (I: T[dV]P[Sar][NMeV] / II: T[dV]P[Sar][NMeV]; ester I:1-I:C, II:1-II:C; linker I:N-II:N via Actinocin(9to1))"
2,substrate [],COc1cccc2c1C(=O)c1c(O)c3c(c(O)c1C2=O)C[C@@](O)(C(C)=O)C[C@@H]3O[C@H]1C[C@H](N)[C@H](O)[C@H](C)O1 [DAUNORUBICIN]
3,substrate [],COc1cccc2c1C(=O)c1c(O)c3c(c(O)c1C2=O)C[C@@](O)(C(=O)CO)C[C@@H]3O[C@H]1C[C@H](N)[C@H](O)[C@H](C)O1 [DOXORUBICIN]
4,substrate [],COc1cc([C@@H]2c3cc4c(cc3[C@@H](O[C@@H]3O[C@@H]5CO[C@@H](C)O[C@H]5[C@H](O)[C@H]3O)[C@H]3COC(=O)[C@H]23)OCO4)cc(OC)c1O [ETOPOSIDE]
5,substrate [],COc1cc([C@@H]2c3cc4c(cc3[C@@H](O[C@@H]3O[C@@H]5CO[C@@H](c6cccs6)O[C@H]5[C@H](O)[C@H]3O)[C@H]3COC(=O)[C@H]23)OCO4)cc(OC)c1O [TENIPOSIDE]
6,substrate [],CISPLATIN
